Structures are written as SMILES. Where two headings read alike, the source gives them in different places.

In assay [1] the test system is Colorectal (Colo-205). As to the kind of experiment: Cancer cell growth inhibition in culture, Colorectal (Colo-205). Conditions: 50% growth inhibition. The class given is cell-based, human. The source says:
(§1) Cancer cell growth inhibition.

Assay [2] concerns Colon (HT-29). As to the kind of experiment: Cancer cell growth inhibition in culture, Colon (HT-29). The class given is cell-based, human. The following applies: 50% growth inhibition.
Text: as §1

The subject of assay [3] is Fibrosarcoma (HT-1080). As to the kind of experiment: Cancer cell growth inhibition in culture, Fibrosarcoma (HT-1080). Conditions: 50% growth inhibition. The class given is cell-based, human.
Text: as §1

Assay [4] has as its target T1, human recombinant protein farnesyltransferase (FTase) (Homo sapiens, UniProt P49354+P49356).
T1 construct: gift from Professor Patrick Casey, Duke University
Kind of assay: FTase fluorescence assay after pre-incubation with inhibitor. The following applies: 30-minute treatment in vitro, 30° C. In kind it is biochemical. The protocol:
Preparation of Ds-GCVLS—Ds-GCVLS was prepared by a method analogous to a published procedure. Synthesis was performed by use of a Millipore 9050 Plus PepSynthesizer that employed standard Fmoc solid phase peptide synthesis methodology. PS-PEG resin and Fmoc protected amino acids were obtained from Millipore. The N-dansylglycine was from Sigma Chemical Co. Peptide purification was performed by RP-HPLC on an Alltech Macrosphere RP300 C8 column. Elution was accomplished with a linear gradient from aqueous 10 mM trifluoroacetic acid to 10 mM trifluoroacetic acid in acetonitrile. Lyophilization yielded a pale yellow solid. […] Concentrations of Ds-GCVLS were determined by use of the extinction coefficient of the dansyl group at 340 nm (ε=4250 M-1 cm-1). […]
FTase assay—The fluoresence assay conditions were adapted from a published method. […] Enzyme activity (approximately 60 nM FTase) was monitored at saturating substrate concentrations (10 μM farnesyl diphosphate, ammonium salt, prepared by successive dilutions of a commercial 2.3 mM solution in methanol:10 mM aqueous NH4OH (7:3) into assay buffer, and 1.0 FM Ds-GCVLS) by measurement of the increase in fluorescence emission observed at λ=505 nm as FTase farnesylated Ds-GCVLS for a period of 10 min. […] All fluorescence assays were conducted in a 4 mm×4 mm quartz cuvette with excitation at 340 nm. […]

Assay [5] concerns Colon (Caco-2). As to the kind of experiment: Cancer cell growth inhibition in culture, Colon (Caco-2). The class given is cell-based, human. Conditions: 50% growth inhibition.
Text: as §1

Assay [6] concerns Acute myeloid leukemia (HL-60). Kind of assay: Cancer cell growth inhibition in culture, Acute myeloid leukemia (HL-60). The class given is cell-based, human. The following applies: 50% growth inhibition.
Text: as §1

Assay [7] concerns Urinary bladder (T-24). As to the kind of experiment: Cancer cell growth inhibition in culture, Urinary bladder (T-24). The class given is cell-based, human. Conditions: 50% growth inhibition.
Text: as §1

Assay [8] concerns NSC Lung (H-460). Kind of assay: Cancer cell growth inhibition in culture, NSC Lung (H-460). The class given is cell-based. Conditions: Homo sapiens, NCI-H460, 50% growth inhibition.
Text: as §1

The subject of assay [9] is Prostate (PC-3). As to the kind of experiment: Cancer cell growth inhibition in culture, Prostate (PC-3). The class given is cell-based. Conditions: Homo sapiens, 50% growth inhibition.
Text: as §1

Assay [10] deals with Pancreatic (BXPC-3). Kind of assay: Cancer cell growth inhibition in culture, Pancreatic (BXPC-3). The following applies: Homo sapiens. The class given is cell-based.
Text: (§2) Compound RG-14 was also effective at inhibiting the growth of human cancer cells in culture. The GI50 values of this compound against specified human cancer cells and mouse leukemia cells grown in culture are shown in Table 2.
as §1

The subject of assay [11] is Breast (MCF-7). Kind of assay: Cancer cell growth inhibition in culture, Breast (MCF-7). Conditions: Homo sapiens, MCF7. The class given is cell-based.
Text: as §2, §1

The test system of assay [12] is Lung (NCI-H460). As to the kind of experiment: Cancer cell growth inhibition in culture, Lung (NCI-H460). The class given is cell-based. The following applies: Homo sapiens.
Text: as §2, §1

The subject of assay [13] is Mouse P388 leukemia. Kind of assay: Cancer cell growth inhibition in culture, Mouse P388 leukemia. In kind it is cell-based. The following applies: read-out: ED50 (the source's name).
Text: as §2, §1

Assay [14] deals with Colon (KM20L2). As to the kind of experiment: Cancer cell growth inhibition in culture, Colon (KM20L2). In kind it is cell-based. Conditions: Homo sapiens, KM-20L2.
Text: as §2, §1

Assay [15] concerns Central nervous system (SF268). As to the kind of experiment: Cancer cell growth inhibition in culture, Central nervous system (SF268). The class given is cell-based. Conditions: Homo sapiens, SF-268.
Text: as §2, §1

Assay [16] deals with Prostate (DU-145). As to the kind of experiment: Cancer cell growth inhibition in culture, Prostate (DU-145). The class given is cell-based. The following applies: Homo sapiens.
Text: as §2, §1

For assay [17], the system named is human cancer cells and mouse leukemia cells. As to the kind of experiment: Cancer cell growth inhibition in culture, panel of Table 2. The class given is cell-based. The following applies: cell lines of Table 2.
Text: as §2, §1

The term GI50 denotes the concentration that inhibits growth by half. The term inhibition denotes the share of the control response that was lost under treatment. Turning to `CC(C)=CCC/C(C)=C/CCC(C)C/C=C(\C)[N+](=O)[O-]` (racemic) [RG-4, 5,9,13-trimethyl-2-nitrotetradeca-2,8,12-triene], the GI50 in [1] is listed as 10^−4 to 10^−5 molar; in assay [2] it was 10^−4 to 10^−5 molar; in assay [3] it was 10^−6 to 10^−7 molar; in [5] it was 10^−4 to 10^−5 molar; in assay [6], 10^−6 to 10^−7 molar; in [7], 10^−4 to 10^−5 molar. Besides, the 50% growth inhibitory concentration (GI50) was found to be 11 µM in assay [8] and 1.5 µM in [9]. In addition, the “decrease of FTase activity” value in [4] (5 μM) was 35%. For the same compound, the inhibition at 50 µM in assay [4] (50 μM) worked out at 83%.
In the case of `CC(C)=CCCC(C)CC=C(C)[N+](=O)[O-]` (racemic) [RG-14, 5,9-dimethyl-2-nitrodeca-2,8-diene], the GI50 in [10] worked out at 62 µM; in assay [11] it was 39 µM; in [12] it was 72 µM; in [14] it was 77 µM; in [15], 73 µM; in [16] it was 72 µM. Further, the EC50 in [13] worked out at 26 µM.
Regarding `CC(C)=CCCC(C)C/C=C/[N+](=O)[O-]` (stereo not drawn) [RG-7, 4,8-dimethyl-1-nitronona-1,7-diene], the GI50 in assay [1] was 10^−4 to 10^−5 molar; in [2], 10^−4 to 10^−5 molar; in [3], 10^−4 to 10^−5 molar; in assay [5] (Homo sapiens, read-out: GI50), more than 100 µM; in [6] (Homo sapiens, read-out: GI50), more than 100 µM; in assay [7] it was 10^−4 to 10^−5 molar. Also, the GI50 in assay [8] was determined as 12 µM; in assay [9], 44 µM.
Regarding `CC(C)=CCCC(C)CCC(C)[N+](=O)[O-]` (stereo not drawn) [SRG-8, reference compound], the GI50 in assay [10], in assay [11], in assay [12], in [14], in [15] and in assay [16] was more than 47 µM throughout. Further, the EC50 in [13] was more than 126 µM. Moreover, in [17], the “anticancer cell growth activity” value is recorded as “did not show detectable anticancer cell growth activity”.

Source of the values: patent US20050026812A1, “Conjugated nitro alkene anticancer agents based on isoprenoid metabolism” (Arizona Disease Control Research Commission, priority 2003, published 2005).
